Patent publication US20140294921A1, “COMPOSITION FOR TIPICAL USE FOR TREATING SKIN DISORDERS” (SIGMA-TAU INDUSTRIE FAMACEUTICHE RIUNITE S.P.A., priority 2010, published 2014)

system: dithranol-induced mouse ear inflammation (edema); assay: Dithranol-induced mouse ear inflammation test; assay type: in vivo; details: Swiss male mice, 10 per group; 20 μL solution painted on left ear at Time 0 and +16 h; dithranol 30 μg in 20 μL acetone at +0.5 h; 6 mm ear disks weighed at +24 h
Protocol: Dithranol is a known inflammatory agent, which induces inflammatory response by releasing free radicals.
The modulatory effects of the compositions of the present invention were tested using the dithranol-induced mouse ear inflammation test described in “Methods in Molecular Biology, 2003, Vol 225; 129-137”, and in “Br. J. Pharmacol. 1991, 104; 990-994”.
Swiss male mice (10 per group) of 6 to 8 weeks old; weighing 28-32 g each; were used. Mice had free access to food and water.
The compounds of the invention were dissolved in water or ethanol (depending on their solubility). 20 μL of the solution containing the compound of the invention, or their combinations, was painted on the left ear (back and front; 10+10 μL) using a Hamilton syringe within 30 seconds (Time 0) The compound tested, and their combinations, are reported in the following
A similar volume of vehicle (water or ethanol) was applied to the other ear (control ear).
After 30 minutes (Time+0.5 h) the irritant, dithranol, 30 μg in 20 μL of acetone was painted on the left ear (back and front, 10+10 μL).
A similar volume of acetone was applied to the other ear.
A group of mice treated only with dithranol (no treatment with the compounds of the invention) was present (control group).
An electric hair dryer for a few seconds to evaporate the solvent was used.
The compounds of the invention were administered again 16 hours from the first treatment (Time+16 h).
After 24 hours from the first treatment (Time+24 h) the animals were killed with an overdose of diethyl ether and the ears were cut off.
A disk from the middle part of each ear was cut off, using a sharp punch 6 mm in diameter.
The disks samples were weighted on a suitable balance, and the extent of the edema (as percentage of inhibition) was calculated according to the formula reported on page 991, right column, of “Br. J. Pharmacol. 1991, 104; 990-994” mentioned above.

Q: With `O=C(O)CCCC[C@@H]1SC[C@@H]2NC(=O)N[C@@H]21` [Biotin] as the molecule, how does the “% Inhibit. (extent of the edema as percentage of inhibition)” value read?
A: 6%

Q: Which “% Inhibit. (extent of the edema as percentage of inhibition)” value does the source give for `CC(C)=CCC[C@](C)(O)C1CC=C(C)CC1` (stereo partly drawn) [Bisabolol] here?
A: 6%

Q: Which “% Inhibit. (extent of the edema as percentage of inhibition)” value does the source give for `C[N+](C)(C)C[C@H](O)CC(=O)[O-]` [L-carnitine] here?
A: 9%

Q: `CC(C)(CO)[C@@H](O)C(=O)NCCCO` [Panthenol] was tested. Which “% Inhibit. (extent of the edema as percentage of inhibition)” value did it give?
A: 7%

Q: How did the “% Inhibit. (extent of the edema as percentage of inhibition)” value turn out when Vitamin B12 was run?
A: 8%

Q: How did the “% Inhibit. (extent of the edema as percentage of inhibition)” value turn out when Vitamin E was run?
A: 8%
